Experimental data reported in a compilation of properties of binary mixtures (doi:10.1021/acs.jced.0c00987).

Assay: xn = mol fraction of the nth substance listed
Conditions: 100 kPa

OCCN(CCO)CCO + CCOS(=O)(=O)[O-].CC[n+]1ccn(C)c1
Conditions	electrical conductivity, 298.15 K [S/m]	electrical conductivity, 313.15 K [S/m]	viscosity, 293.15 K [mPa·s]	viscosity, 298.15 K [mPa·s]	viscosity, 303.15 K [mPa·s]	viscosity, 313.15 K [mPa·s]
x1 = 0.153	0.356	–	–	97.8	77.1	–
x1 = 0.285	0.284	0.53	121.9	94.1	74	48.1
x1 = 0.52	0.173	0.349	137.4	103.5	79.5	49.8
x1 = 0.617	0.126	0.266	–	117.8	–	54.3
x1 = 0.703	0.085	0.189	209.4	151.8	112.4	66
x1 = 0.787	–	0.108	286.6	–	146.5	82.5
x1 = 0.866	0.0219	0.055	416	287.3	–	110.1
x1 = 0.929	–	0.0234	583	–	–	143.5
x1 = 0.967	–	0.0103	–	–	–	167.7
x2 = 0.003	0.0004	0.0012	871	579	394	197.1
x2 = 0.006	0.0008	0.0021	857	570	–	195.3
x2 = 0.019	0.0021	0.0058	792	528	361	182.4

OCCO + CCOS(=O)(=O)[O-].CC[n+]1ccn(C)c1
x1 = 1
Conditions	viscosity [mPa·s]
293.15 K	20.8
313.15 K	9.52

OCCN(CCO)CCO + CC[n+]1ccn(C)c1.O=S(=O)([O-])C(F)(F)F
Conditions	electrical conductivity, 298.15 K [S/m]	electrical conductivity, 313.15 K [S/m]	viscosity, 293.15 K [mPa·s]	viscosity, 298.15 K [mPa·s]	viscosity, 303.15 K [mPa·s]	viscosity, 313.15 K [mPa·s]
x1 = 0.084	0.82	1.29	–	43.4	–	25.7
x1 = 0.167	0.72	–	55.7	45.1	–	–
x1 = 0.305	0.53	0.92	66.8	52.5	42	28.2
x1 = 0.426	–	0.63	86.2	–	51	32.8
x1 = 0.539	–	0.463	118.7	–	66.2	40.7
x1 = 0.641	0.137	0.296	165	118.4	–	50.9
x1 = 0.723	0.079	–	233.1	163.2	117.4	–
x1 = 0.802	0.041	0.102	336	228.6	160.6	86.3
x1 = 0.875	–	0.05	477	–	220.7	114.8
x1 = 0.94	0.0067	0.019	678	449	306.2	155
x1 = 0.969	0.0032	0.0092	793	523	355	177.4
x2 = 0.003	0.0004	0.0012	913	599	405	200.7
x2 = 0.006	0.0007	–	902	591	–	–
x2 = 0.017	0.0019	0.0054	848	557	377	188

OCCO + CC[n+]1ccn(C)c1.O=S(=O)([O-])C(F)(F)F
x1 = 1
Conditions	viscosity [mPa·s]
293.15 K	20.8
298.15 K	16.8
303.15 K	13.8
313.15 K	9.52

CCOS(=O)(=O)[O-].CC[n+]1ccn(C)c1 + OCC(O)CO
Conditions	electrical conductivity, 298.15 K [S/m]	electrical conductivity, 313.15 K [S/m]	viscosity, 293.15 K [mPa·s]	viscosity, 298.15 K [mPa·s]	viscosity, 303.15 K [mPa·s]	viscosity, 313.15 K [mPa·s]
x1 = 0.002	0.0004	–	1381.9	892	590	–
x1 = 0.004	0.0006	–	1352.7	873	578	–
x1 = 0.012	0.002	0.0063	1239	804	535	255.6
x2 = 0	–	–	123.5	95.9	75.7	49.7
x2 = 0.123	–	0.72	114.1	–	70.7	46.7
x2 = 0.264	0.386	0.71	104.7	81.9	–	43.1
x2 = 0.39	0.365	0.67	101.5	79.1	62.6	41.2
x2 = 0.5	0.313	0.6	–	81.2	–	41.2
x2 = 0.601	–	0.496	121	–	70.4	44.1
x2 = 0.703	0.173	0.371	162.3	119.2	89.3	53.3
x2 = 0.794	0.089	0.209	248.6	176.4	128	72.1
x2 = 0.901	0.026	0.071	533	360	249.8	129.3
x2 = 0.958	0.0075	–	922	604	406	–
x2 = 0.98	0.0033	0.0102	1138.7	742	–	237.9

CC[n+]1ccn(C)c1.O=S(=O)([O-])C(F)(F)F + OCC(O)CO
Conditions	electrical conductivity, 298.15 K [S/m]	electrical conductivity, 313.15 K [S/m]	viscosity, 293.15 K [mPa·s]	viscosity, 298.15 K [mPa·s]	viscosity, 303.15 K [mPa·s]	viscosity, 313.15 K [mPa·s]
x1 = 0.002	0.0003	0.0008	–	887	588	280.1
x1 = 0.004	0.0006	0.0018	1333.2	862	572	272.9
x1 = 0.011	0.0014	0.0044	1257.8	815	543	259.2
x1 = 0.018	0.0025	–	1168.4	760	506	–
x2 = 0.199	0.85	1.35	–	40.1	33.2	23.6
x2 = 0.299	0.77	–	50.2	40.7	33.4	–
x2 = 0.401	–	1.16	57.2	–	36.6	24.9
x2 = 0.499	0.492	0.89	70.2	54.4	42.9	28
x2 = 0.605	0.316	0.6	–	73.4	56	34.7
x2 = 0.698	0.198	0.416	–	106.2	78.8	46.3
x2 = 0.805	0.089	0.21	261.5	182.8	130.6	71.6
x2 = 0.899	0.0255	0.066	545	366	251.6	128.5
x2 = 0.919	0.0172	0.0486	646	430	293.3	147.6
x2 = 0.962	0.0056	0.0174	–	633	–	206.8

CCOS(=O)(=O)[O-].CC[n+]1ccn(C)c1 + OCCN(CCO)CCO
x2 = 0
Conditions	viscosity [mPa·s]
293.15 K	123.5
298.15 K	95.9
313.15 K	49.7

CC[n+]1ccn(C)c1.O=S(=O)([O-])C(F)(F)F + OCCO
Conditions	electrical conductivity, 298.15 K [S/m]	electrical conductivity, 313.15 K [S/m]	viscosity, 293.15 K [mPa·s]	viscosity, 298.15 K [mPa·s]	viscosity, 303.15 K [mPa·s]	viscosity, 313.15 K [mPa·s]
x1 = 0.001	–	0.0144	20.75	–	13.8	9.535
x1 = 0.002	0.0193	0.0335	20.6	16.7	–	9.46
x1 = 0.007	0.054	0.093	–	16.5	13.5	9.39
x1 = 0.013	0.082	0.137	20.1	16.3	–	9.28
x2 = 0.2	1.21	1.83	32.8	27.6	–	17.3
x2 = 0.413	1.44	2.17	21.9	18.6	15.9	11.9
x2 = 0.497	–	–	19.4	16.4	14	–
x2 = 0.498	1.51	2.28	–	–	–	–
x2 = 0.586	1.41	2.12	–	–	–	–
x2 = 0.587	–	–	17.6	14.8	12.7	9.5
x2 = 0.697	1.25	1.91	15.8	13.3	11.3	8.39
x2 = 0.808	0.95	–	15.7	13	11	–
x2 = 0.863	0.74	1.2	15.6	12.9	10.1	7.81
x2 = 0.907	0.52	0.87	17.1	14.1	11.7	8.32
x2 = 0.944	0.331	0.56	18.3	15	12.4	8.71
x2 = 0.974	0.161	0.276	–	15.9	13.1	9.1
